Experimental findings from patent US10160747B2, “Compounds and methods for kinase modulation, and indications therefor” (Plexxikon Inc., priority 2016, dated 2018) are described below.

As usually defined, the IC50 is the concentration needed to halve the response being measured.

In experiment [1] the test system is MOLM-14 F691L (endogenous FLT3 ITD and transfected FLT3 F691L). The experiment in a line: MOLM-14 F691L cell proliferation assay (CellTiter-Glo). The conditions noted are these: Homo sapiens, MOLM-14, 72 h; 3 d growth, GMean. Type of experiment: cell-based. In outline:
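MOLM-14 derivatives carrying D835Y or F691L, selected under escalating AC220, were seeded at 1×10^4 cells/well and exposed to an 8-point 1:3 compound series (1 to 0.00046 μM, 0.2% DMSO final) for three days at 37° C., 5% CO2. CellTiter-Glo luminescence (ATP content) versus concentration gave IC50.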
Background: ATP-based viability assays read luminescence as a measure of living cells.

For the next experiment, the target named is T1, FLT3-D835Y (Homo sapiens, UniProt P36888, D835Y).
T1 construct: purchased Invitrogen PV3967
T1 sequence (P36888 27-993 D835Y): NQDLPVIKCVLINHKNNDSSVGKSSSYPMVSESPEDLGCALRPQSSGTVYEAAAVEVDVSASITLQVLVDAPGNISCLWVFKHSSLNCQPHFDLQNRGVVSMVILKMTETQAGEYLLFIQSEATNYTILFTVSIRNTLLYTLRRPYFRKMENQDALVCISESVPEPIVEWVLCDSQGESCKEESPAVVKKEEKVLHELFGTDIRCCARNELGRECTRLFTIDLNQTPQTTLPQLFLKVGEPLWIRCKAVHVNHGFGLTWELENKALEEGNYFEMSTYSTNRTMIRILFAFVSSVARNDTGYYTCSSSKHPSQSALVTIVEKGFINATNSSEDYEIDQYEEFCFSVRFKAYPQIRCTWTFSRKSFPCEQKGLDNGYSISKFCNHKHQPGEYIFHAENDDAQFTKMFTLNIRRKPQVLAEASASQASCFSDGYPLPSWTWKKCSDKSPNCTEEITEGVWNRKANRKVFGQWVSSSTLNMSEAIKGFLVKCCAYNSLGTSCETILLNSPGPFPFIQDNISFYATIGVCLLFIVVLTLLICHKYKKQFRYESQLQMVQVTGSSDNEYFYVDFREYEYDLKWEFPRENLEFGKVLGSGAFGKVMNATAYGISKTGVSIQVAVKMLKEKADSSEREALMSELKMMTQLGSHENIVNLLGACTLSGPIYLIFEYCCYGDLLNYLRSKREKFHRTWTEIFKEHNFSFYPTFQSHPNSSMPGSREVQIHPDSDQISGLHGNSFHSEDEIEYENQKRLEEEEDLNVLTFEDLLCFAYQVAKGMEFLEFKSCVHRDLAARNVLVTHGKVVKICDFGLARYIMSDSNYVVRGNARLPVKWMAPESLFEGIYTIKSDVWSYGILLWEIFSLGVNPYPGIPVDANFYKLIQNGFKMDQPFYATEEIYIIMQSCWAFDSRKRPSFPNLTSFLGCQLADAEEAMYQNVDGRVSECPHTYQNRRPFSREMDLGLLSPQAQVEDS
The experiment in a line: FLT3-D835Y recombinant enzyme kinase assay (AlphaScreen). Type of experiment: biochemical. The note with it: 8 pt, GMean. In outline: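 Recombinant kinase phosphorylates 30 nM biotinylated poly(Glu4-Tyr) peptide; ATP is 10 μM for FLT3-ITD and FLT3-D835Y, 100 μM for c-KIT. Phosphotyrosine detected by AlphaScreen (streptavidin donor, PY20 acceptor beads, 10 μg/mL), 580 nm signal after 680 nm excitation; IC50 from signal decrease.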
In general terms: Alpha assays give light when donor and acceptor beads are brought close together.

As for `CCn1cc(Nc2ncc(-c3ccc(CC(=O)Nc4ccc(C(F)(F)F)cn4)cc3)cn2)cn1` [Compound P-0251, 2-[4-[2-[(1-ethylpyrazol-4-yl)amino]pyrimidin-5-yl]phenyl]-N-[5-(trifluoromethyl)-2-pyridyl]acetamide], the half-inhibitory concentration (IC50) (in experiment [1]; on FLT3-D835Y) was 0.0001 to 10 µM in each case.
Regarding `O=C(Cc1ccc(-c2cnc(Nc3cnn(C(F)F)c3)nc2)cc1)Nc1cc(C(F)(F)F)ccn1` [Compound P-0023, 2-[4-[2-[[1-(difluoromethyl)pyrazol-4-yl]amino]pyrimidin-5-yl]phenyl]-N-[4-(trifluoromethyl)-2-pyridyl]acetamide], the IC50 (in experiment [1]; on FLT3-D835Y) was 0.0001 to 10 µM in each case.
Regarding `CCn1cc(Nc2ncc(-c3ccc(CC(=O)Nc4cnc(OC)c(C(F)(F)F)c4)cc3F)cn2)cn1` [Compound P-0246, 2-[4-[2-[(1-ethylpyrazol-4-yl)amino]pyrimidin-5-yl]-3-fluoro-phenyl]-N-[6-methoxy-5-(trifluoromethyl)-3-pyridyl]acetamide], the IC50 (in experiment [1]; on FLT3-D835Y) was 0.0001 to 10 µM throughout.
As to `COCCn1cc(Nc2ncc(-c3ccc(CC(=O)Nc4cnc(OC)c(C(F)(F)F)c4)c(F)c3)cn2)cn1` [Compound P-0265, 2-[2-fluoro-4-[2-[[1-(2-methoxyethyl)pyrazol-4-yl]amino]pyrimidin-5-yl]phenyl]-N-[6-methoxy-5-(trifluoromethyl)-3-pyridyl]acetamide], the IC50 (in experiment [1]; at FLT3-D835Y) was 0.0001 to 10 µM throughout.
As to `O=C(Cc1ccc(-c2cnc(Nc3cnn(C4CC4)c3)nc2)cc1F)Nc1cc(C(F)(F)F)ccn1` [Compound P-0244, 2-[4-[2-[(1-cyclopropylpyrazol-4-yl)amino]pyrimidin-5-yl]-2-fluoro-phenyl]-N-[4-(trifluoromethyl)-2-pyridyl]acetamide], the IC50 (in experiment [1]; at FLT3-D835Y) was 0.0001 to 10 µM in each case.
Turning to `COc1ncc(NC(=O)Cc2ccc(-c3cnc(Nc4cnn(C)c4)nc3)c(F)c2)cc1C(F)(F)F` [Compound P-0206, 2-[3-fluoro-4-[2-[(1-methylpyrazol-4-yl)amino]pyrimidin-5-yl]phenyl]-N-[6-methoxy-5-(trifluoromethyl)-3-pyridyl]acetamide], the IC50 (in experiment [1]; at FLT3-D835Y) was 0.0001 to 10 µM in each case.
`COCCn1cc(Nc2ncc(-c3ccc(CC(=O)Nc4ccc(C(F)(F)F)cn4)c(F)c3)cn2)cn1` [Compound P-0269, 2-[2-fluoro-4-[2-[[1-(2-methoxyethyl)pyrazol-4-yl]amino]pyrimidin-5-yl]phenyl]-N-[5-(trifluoromethyl)-2-pyridyl]acetamide]: the IC50 (in experiment [1]; at FLT3-D835Y) was 0.0001 to 10 µM each time.
Take `O=C(Cc1ccc(-c2cnc(Nc3cnn(C4CC4)c3)nc2)cc1)Nc1cncc(C(F)(F)F)c1` [Compound P-0231, 2-[4-[2-[(1-cyclopropylpyrazol-4-yl)amino]pyrimidin-5-yl]phenyl]-N-[5-(trifluoromethyl)-3-pyridyl]acetamide]: the IC50 (in experiment [1]; at FLT3-D835Y) was 0.0001 to 10 µM each time.
Turning to `COc1ncc(NC(=O)Cc2ccc(-c3cnc4[nH]nc(C5CC5)c4c3)cc2)cc1C(F)(F)F` [Compound P-0263, 2-[4-(3-cyclopropyl-1H-pyrazolo[3,4-b]pyridin-5-yl)phenyl]-N-[6-methoxy-5-(trifluoromethyl)-3-pyridyl]acetamide], the IC50 (in experiment [1]; on FLT3-D835Y) was 0.0001 to 10 µM throughout.
On to `COc1ncc(NC(=O)Cc2ccc(-c3cnc4[nH]c(-c5ccnc(C#N)c5)cc4c3)c(F)c2)cc1C(F)(F)F` [Compound P-0016, 2-[4-[2-(2-cyano-4-pyridyl)-1H-pyrrolo[2,3-b]pyridin-5-yl]-3-fluoro-phenyl]-N-[6-methoxy-5-(trifluoromethyl)-3-pyridyl]acetamide], for which the IC50 (in experiment [1]; on FLT3-D835Y) was 0.0001 to 10 µM in each case.
Consider `COc1ncc(NC(=O)Cc2ccc(-c3cnc4[nH]nc(N)c4c3)c(F)c2)cc1C(F)(F)F` [Compound P-0203, 2-[4-(3-amino-1H-pyrazolo[3,4-b]pyridin-5-yl)-3-fluoro-phenyl]-N-[6-methoxy-5-(trifluoromethyl)-3-pyridyl]acetamide], for which the IC50 (in experiment [1]; on FLT3-D835Y) was 0.0001 to 10 µM each time.
Turning to `COc1ncc(NC(=O)Cc2ccc(-c3cnc(Nc4cnn(C5CC5)c4)nc3)cc2)cc1C(F)(F)F` [Compound P-0234, 2-[4-[2-[(1-cyclopropylpyrazol-4-yl)amino]pyrimidin-5-yl]phenyl]-N-[6-methoxy-5-(trifluoromethyl)-3-pyridyl]acetamide], the IC50 (in experiment [1]; at FLT3-D835Y) was 0.0001 to 10 µM in each case.
As to `Cc1ncc(NC(=O)Cc2ccc(-c3cnc(Nc4cnn(C5CC5)c4)nc3)cc2)cc1C(F)(F)F` [Compound P-0232, 2-[4-[2-[(1-cyclopropylpyrazol-4-yl)amino]pyrimidin-5-yl]phenyl]-N-[6-methyl-5-(trifluoromethyl)-3-pyridyl]acetamide], the IC50 (in experiment [1]; at FLT3-D835Y) was 0.0001 to 10 µM throughout.
Take `COc1ncc(NC(=O)Cc2ccc(-c3cnc4[nH]c(-c5ccnc(C#N)c5)cc4c3)cc2F)cc1C(F)(F)F` [Compound P-0013, 2-[4-[2-(2-cyano-4-pyridyl)-1H-pyrrolo[2,3-b]pyridin-5-yl]-2-fluoro-phenyl]-N-[6-methoxy-5-(trifluoromethyl)-3-pyridyl]acetamide]: the IC50 (in experiment [1]; on FLT3-D835Y) was 0.0001 to 10 µM throughout.
In the case of `O=C(Cc1ccc(-c2cnc(Nc3cnn(C4CC4)c3)nc2)cc1F)Nc1cncc(C(F)(F)F)c1` [Compound P-0238, 2-[4-[2-[(1-cyclopropylpyrazol-4-yl)amino]pyrimidin-5-yl]-2-fluoro-phenyl]-N-[5-(trifluoromethyl)-3-pyridyl]acetamide], the IC50 (in experiment [1]; on FLT3-D835Y) was 0.0001 to 10 µM in each case.
For `Cc1ncc(NC(=O)Cc2ccc(-c3cnc(Nc4cnn(C(F)F)c4)nc3)cc2)cc1C(F)(F)F` [Compound P-0210, 2-[4-[2-[[1-(difluoromethyl)pyrazol-4-yl]amino]pyrimidin-5-yl]phenyl]-N-[6-methyl-5-(trifluoromethyl)-3-pyridyl]acetamide], the IC50 (in experiment [1]; at FLT3-D835Y) was 0.0001 to 10 µM in each case.
Turning to `CCOc1n[nH]c2ncc(-c3ccc(CC(=O)Nc4cnc(OC)c(C(F)(F)F)c4)cc3F)cc12` [Compound P-0202, 2-[4-(3-ethoxy-1H-pyrazolo[3,4-b]pyridin-5-yl)-3-fluoro-phenyl]-N-[6-methoxy-5-(trifluoromethyl)-3-pyridyl]acetamide], the IC50 (in experiment [1]; on FLT3-D835Y) was 0.0001 to 10 µM each time.
For the compound `COc1ncc(NC(=O)Cc2ccc(-c3cnc4[nH]c(-c5ccc(C#N)nc5)cc4c3)c(F)c2)cc1C(F)(F)F` [Compound P-0014, 2-[4-[2-(6-cyano-3-pyridyl)-1H-pyrrolo[2,3-b]pyridin-5-yl]-3-fluoro-phenyl]-N-[6-methoxy-5-(trifluoromethyl)-3-pyridyl]acetamide], the IC50 (in experiment [1]; on FLT3-D835Y) was 0.0001 to 10 µM each time.
For `O=C(Cc1ccc(-c2cnc(Nc3cnn(C4CC4)c3)nc2)cc1)Nc1cnc(Cl)c(C(F)(F)F)c1` [Compound P-0233, N-[6-chloro-5-(trifluoromethyl)-3-pyridyl]-2-[4-[2-[(1-cyclopropylpyrazol-4-yl)amino]pyrimidin-5-yl]phenyl]acetamide], the IC50 (in experiment [1]; at FLT3-D835Y) was 0.0001 to 10 µM each time.
As for `COCCn1cc(Nc2ncc(-c3ccc(CC(=O)Nc4cncc(C(F)(F)F)c4)c(F)c3)cn2)cn1` [Compound P-0267, 2-[2-fluoro-4-[2-[[1-(2-methoxyethyl)pyrazol-4-yl]amino]pyrimidin-5-yl]phenyl]-N-[5-(trifluoromethyl)-3-pyridyl]acetamide], the IC50 (in experiment [1]; at FLT3-D835Y) was 0.0001 to 10 µM each time.
`CCn1cc(Nc2ncc(-c3ccc(CC(=O)Nc4cnc(C)c(C(F)(F)F)c4)cc3F)cn2)cn1` [Compound P-0248, 2-[4-[2-[(1-ethylpyrazol-4-yl)amino]pyrimidin-5-yl]-3-fluoro-phenyl]-N-[6-methyl-5-(trifluoromethyl)-3-pyridyl]acetamide]: the IC50 (in experiment [1]; on FLT3-D835Y) was 0.0001 to 10 µM in each case.
